Measured values reported in patent US6528096B1, “Carrier mixed with additives having lubricant properties for preparing powdery pharmaceutical compositions for inhalation” (Chiesi Farmaceutical S.p.A., priority 1999, dated 2003).

Legend:
[1] = Water contact angle and degree of molecular surface coating of carrier; format: physicochemical; conditions: single component, Table 6 footnote
Method: Advantageously, the carrier particles and the lubricant particles are mixed until the degree of molecular surface coating is more than 10% as determined by water contact angle measurement. Preferably, carrier particles and lubricant particles made of magnesium stearate are mixed until the water contact angle of the ‘coated’ carrier particles is more than 36° corresponding to more than 10% degree of molecular surface coating; more preferably, the water contact angle should be more than 50° corresponding to more than 23% decree of molecular surface coating.
40.528 kg (99.75% w/w) of α-Lactose monohydrate fraction 90-150 μm and 0.102 kg (0.25% w/w) of magnesium stearate were mixed in a Turbula mixer T 100 at 16 r.p.m. for several hours. At different mixing times samples were withdrawn and tested for uniformity of distribution of magnesium stearate, particle size, water contact angle and degree of molecular surface coating calculated according to lassie et al. (Transactions of the Faraday Society 40; 546, 1944). To validate the process, three batches (40 kg) of the carrier were prepared.

dog = experiment: Toxicity studies in dog; format: in vivo
healthy volunteers = experiment: Acute tolerance trial in healthy volunteers; format: in vivo, humans; conditions: single dose 25.72 mg lactose and 0.065 mg magnesium stearate via Pulvinal inhaler
Method: Furthermore, acute and long term tolerance trials were carried out to evaluate toxicity of magnesium stearate in humans.
In the former, 18 healthy volunteers, included in a double blind randomised controlled cross-over design study, received a single dose containing 25.72 mg of lactose and 0.065 mg of magnesium stearate via Pulvinal® inhaler. The introduction of 0.25% magnesium stearate in powdery pharmaceutical formulation resulted to be safe.

Compound	water contact angle [1]	Safety of the respirable amount (dog)	Safety, acute tolerance (healthy volunteers)
O.OC[C@H]1O[C@@H](O[C@H]2[C@H](O)[C@@H](O)[C@@H](O)O[C@@H]2CO)[C@H](O)[C@@H](O)[C@H]1O [α-Lactose monohydrate]	α-Lactose monohydrate water contact angle 12°		
Magnesium stearate	Magnesium stearate water contact angle 118°	safe	safe
